From patent publication US20240255529A1, “NOVEL ASSAY AND NOVEL METHODS OF TREATING AGING-RELATED CONDITIONS” (The Progeria Research Foundation, priority 2021, published 2024)

Tests used:
[1] = children with HGPS treated with lonafarnib during a clinical trial; cited from earlier work
children with HGPS = children with HGPS treated with lonafarnib; cited from earlier work
plasma progerin = assay: Plasma progerin (SMC progerin immunoassay) in HGPS clinical trial patients on therapy; format: in vivo, human
Excerpt: An SMC ultrasensitive immunoassay for the detection of plasma progerin was developed. Overall, the assay employed a sandwich immunoassay format with an anti-lamin A capture antibody coated on magnetic microparticles, and an anti-progerin specific detection antibody conjugated to a fluorescent tag (FIG. 1) run in a 96-well plate. Progerin-bound detection antibody was eluted and read as single molecules using a confocal laser.
The SMC assay for measuring Progerin was as previously described (Todd et al.), except that magnetic microparticles (MP) coated with capture antibodies and detection reagents were specific to the progerin assay (FIG. 1). Briefly, the progerin capture antibody (mouse Mab anti-Lamin A+C, clone: 131C3 Abcam, epitope between amino acid residues 319-566, common to Lamins A, C and progerin) was coated onto MP at 25 μg antibody/mg MP. Samples were exposed to the MP-capture antibody, to specifically bind analyte, followed by one plate wash to remove unbound material. Next, fluorescently labeled progerin-specific detection antibody (Mouse Mab, clone: 13A4, from Millipore, epitope between amino acids 604 and 611 of progerin, which cross the deletion region of lamin A), pre-diluted to 2,000 ng/mL in assay buffer and then filtered through a 0.2 μm filter (MilliporeSigma), was added to wells. Plates were then washed 4 times to remove any unbound detection antibody. All MPs were then transferred from the initial 96-well assay plate to a new plate to avoid eluting any non-specific plate-bound detection antibody. Progerin-bound detection antibody was then eluted by pH shift using a proprietary glycine buffer, transferred to a new plate and detected by SMC using the Erenna Immunoassay System software (SgxLink™). The raw signal data and the interpolated value data obtained from SgxLink were transferred to Excel where precision was then calculated for the replicate wells. The acceptance specification for raw signal and interpolated values was precision and recovery bias≤20%.
A 12-point standard curve of recombinant progerin (Abcam 93918) diluted in EMD standard diluent, a synthetic serum-based solution containing a proprietary mixture of Tris buffer and carrier protein (emdmillipore.com), was run on each plate in triplicate. The standard curve was used to determine progerin concentration in unknown samples. Samples were diluted in standard diluent so that anticipated progerin fell within the dynamic range of the standard curve. All reported progerin and SD are dilution-corrected. All samples were tested in duplicate, unless triplicate is specified.
Human clinical data was obtained from The PRF International Progeria Registry, Diagnostics Program, and Medical and Research Database (available online at progeriaresearch.org). HGPS plasma and serum were obtained from The PRF Cell and Tissue Bank (available online at progeriaresearch.org). Clinical trial samples were donated to the Bank from Boston Children's Hospital (BCH) with informed consent or approval from the BCH Committee on Clinical Investigation. Trial samples were collected in a fasting state, in the morning just prior to treatment dosing as trough samples, except pK samples which were collected at trough and then at specified times post-trough. Non-trial samples were not regulated as to time of day collected. Some nonHGPS healthy human plasma samples were obtained from ProMedDx. HGPS and nonHGPS plasma sample IDs were assigned HGPI and NPI prefixes, respectively.
For analysis, samples were fully thawed at RT for <5 min, lightly mixed, diluted in standard diluent before transferring into filter plate wells (MilliporeSigma MSBVN1210). Patient plasma volumes required for analysis were 200 or 100 μl (nonHGPS 1:1 and 1:2) and 8 μl (HGPS 1:25) to generate duplicates. Filter plates with sample were centrifuged for 10 minutes to pull sample through the filters. Filtrate was then assessed as described. […]

patients with HGPS = assay: Life expectancy versus progerin decrease and time on lonafarnib therapy (dynamic model based on cRMST); format: in vivo, human
Excerpt: To quantify increase in life expectancy as it related to decrease in progerin and duration of time on lonafarnib therapy, the methodology by Yang et al. (2021), which proposes a dynamic model that utilizes a series of landmark time points (Dafni, 2011) based on the conditional restricted mean survival time (cRMST), was utilized. This analysis also adjusted for sex and age at baseline.
Next, the relationship between lonafarnib treatment duration and change in life expectancy with extent of change in plasma progerin was assessed (FIG. 7, Table 7). This analysis included samples from patients with a baseline pre-therapy and at least one on-treatment progerin measurement (N=65 patients). […] Three representative wide-ranging examples of on-therapy progerin decreases (1,000, 10,000 and 15,000 pg/mL) spanning 10 years on treatment are graphed in FIG. 7. Patient lifespan increased in all 3 examples.

## NC(=O)N1CCC(CC(=O)N2CCC([C@H]3c4ncc(Br)cc4CCc4cc(Cl)cc(Br)c43)CC2)CC1 [lonafarnib]
[1]
  Cmax: 2640 ng/mL
Children with HGPS
  increased survival, estimated, on average: 2.5 years
Plasma progerin; 10 patients, extension 4.1±0.5 years, p=0.99
  average progerin, consecutive Triple Therapy vs on-treatment lonafarnib monotherapy extension visits: no significant differences
Plasma progerin; ProLon1, 5 remaining visits, lonafarnib 150 mg/m^2, N=22-25, all p<0.0001
  average decreases in progerin from baseline: 50-62%
Plasma progerin; ProLon1, each of the 4 trial visits after the 8-month visit, N=22-25, all p<0.05
  progerin at 150 mg/m^2 lonafarnib versus the 115 mg/m^2 dose: significantly decreased
Plasma progerin; ProLon1, month 4, lonafarnib 115 mg/m^2, N=25, p<0.0001
  average progerin decrease from baseline: 48%
Plasma progerin; ProLon1 pK samples, lonafarnib 115 mg/m^2, all p<0.05
  average difference of progerin trough (lower) from 2-, 4- and 8-hours post-dose: about 3,000 pg/mL
Plasma progerin; ProLon1 pK samples, lonafarnib 150 mg/m^2, all p≥0.05
  progerin post-dose (hours 1,2,4,6,8) vs. trough levels: did not demonstrate significant changes
Plasma progerin; ProLon2, lonafarnib monotherapy 150 mg/m^2, dosing period, N=26, p<0.0001
  average progerin decrease from baseline: 36.7%
Plasma progerin; lonafarnib therapy, HGPS patients
  time to significant decrease of plasma progerin levels: ≤ 4 months
Plasma progerin; long-term continuous therapy subgroup N=13, all subsequent time points, 150 mg/m^2, up to 9.8±0.5 years, p<0.0001
  average decreases in progerin from baseline: 56-74%
Plasma progerin; long-term continuous therapy subgroup N=13, month 4, 115 mg/m^2, p<0.0001
  average progerin decrease from baseline: 48%
Plasma progerin; on therapy, HGPS trial patients
  average decrease of trial patients' plasma progerin: more than 14,000 pg/mL
Plasma progerin; overall, all trials, HGPS patients, p<0.0001
  average on-therapy plasma progerin decrease from baseline untreated: 38%
Plasma progerin; overall, all trials, baseline untreated 32,726±12,659 pg/mL
  average on-therapy plasma progerin: 20,211±10,190 pg/mL
Patients with HGPS; 13 patients on therapy for over 10 years
  estimated increase in life expectancy: ~6 years
Patients with HGPS; from 14.5 to over 20 years of age, 13 patients on therapy over 10 years
  increase in average lifespan: greater than 40%
